From the NIST ThermoML archive (doi:10.1021/je400255c)
± gives the expanded uncertainty stated by the source.

How the values were obtained:
[1] = DTA
[2] = Molar enthalpy of transition or fusion; settings: DSC

Normal melting temperature ([1]; Crystal 1): 168.70 ± 1.5 °C
Triple point temperature ([1]; Crystal 2): 412.65 ± 1 K
Molar enthalpy of transition or fusion ([2]; Crystal 1): 2.76 ± 0.0478 kcal/mol
Molar enthalpy of transition or fusion ([2]; Crystal 2): 0.153 ± 0.00239 kcal/mol
Compound: O=C[O-].[K+] [potassium formate]
